According to patent US6413947B1, “Anilide derivative, production and use thereof” (Takeda Chemical Industries, Ltd., priority 1997, dated 2002):
Where a name gives a salt, the structure may show the parent alone.

Structure (SMILES) | melting point
CN(C)c1ccc(-c2ccc3c(c2)C=C(C(=O)Nc2ccc(CP4(=O)CCCCC4)cc2)CCO3)cc1.Cl | 162 to 163 °C
Cc1ccc(-c2ccc3c(c2)C=C(C(=O)Nc2ccc(C(=O)C4CCCCN4C)cc2)CCO3)cc1 (stereo not shown) | 162 to 163 °C
Cc1ccc(-c2ccc3c(c2)C=C(C(=O)Nc2ccc(C[N+](C)(C)C4CCOCC4)cc2)CCO3)cc1.[Cl-] | 232 to 237 °C (dec.)
COc1ccc(CCN(C)Cc2ccc(NC(=O)/C=C/c3cccc(-c4ccc(C)cc4)c3)cc2)cc1OC.Cl | 214 to 217 °C
Cc1ccc(-c2ccc3c(c2)C=C(C(=O)Nc2ccc(C[N+]4(C)CCCCC4)cc2)CCO3)cc1 (as salt: chloride) [Compound 97, 1—(N-(7—(4-methylphenyl)-2,3-dihydro-1-benzoxepin-4-carbonyl)-4-aminobenzyl)-1-methylpiperidinium chloride] | 231 to 232 °C
CCOc1ccc(-c2ccc3c(c2)C=C(C(=O)Nc2ccc(C[N+](C)(C)C4CCOCC4)cc2)CCO3)cc1 (as salt: chloride) [Compound 250, N-(4-(((7-(4-ethoxyphenyl)-2,3-dihydro-1-benzoxepin-4-yl)carbonyl)amino)benzyl)-N,N-dimethyl-N-(4-tetrahydropyranyl)ammonium chloride] | 200 to 204 °C
Cc1ccc(-c2ccc3c(c2)C=C(C(=O)Nc2ccc(C[N+]4(C)CCCCC4)cc2)CC3)cc1 (as salt: iodide) [Compound 16, 1-methyl-1-[4-[7—(4-methylphenyl)-3,4-dihydronaphthalene-2-carboxamido]benzyl]piperidinium iodide] | 202 to 204 °C
Cc1ccc(-c2cccc(/C=C/C(=O)Nc3ccc(C[N+]4(C)CCCCC4)cc3)c2)cc1 (as salt: iodide) [Compound 72, (E)-1-methyl-1-[4—(3—(4-methylphenyl)cinnamamido)benzyl]-piperidinium iodide] | 176 to 178 °C
Cc1ccc(-c2ccc3c(c2)C=C(C(=O)Nc2ccc(C[N+]4(C)CCCCC4)cc2)CCC3)cc1 (as salt: iodide) [Compound 92, 1—(N-(2—(4-methylphenyl)-6,7-dihydro-5H-benzocycloheptene-8-carbonyl)-4-aminobenzyl)-1-methylpiperidinium iodide] | 220 to 221 °C (dec.)
Cc1ccc(-c2ccc3c(c2)C=C(C(=O)Nc2ccc(C[N+]4(C)CCCCC4)cc2)CCS3)cc1 (as salt: iodide) [Compound 94, 1—(N-(7—(4-methylphenyl)-2,3-dihydro-1-benzo-thiepine-4-carbonyl)-4-aminobenzyl)-1-methyl-piperidinium iodide] | 196 to 197 °C
Cc1ccc(-c2ccc3c(c2)C=C(C(=O)Nc2ccc(C[N+]4(C)CCCCC4)cc2)CCO3)cc1 (as salt: iodide) [Compound 96, 1—(N-(7—(4-methylphenyl)-2,3-dihydro-1-benzoxepin-4-carbonyl)-4-aminobenzyl)-1-methylpiperidinium iodide] | 227 to 228 °C (dec.)
O=C(Nc1ccc(CN2CCCCC2)cc1)C1=Cc2cc(C3CCCCC3)ccc2CC1 [Compound 1, 7-cyclohexyl-N-[4—(piperidinomethyl)-phenyl]-3,4-dihydronaphthalene-2-carboxamide] | 180 to 181 °C
O=C(Nc1ccc(CN2CCCCC2)cc1)C1=Cc2cc(-c3ccccc3)ccc2CC1 [Compound 4, 7-phenyl-N-[4—(piperidinomethyl)phenyl]-3,4-dihydronaphthalene-2-carboxamide] | 163 to 164 °C
CN(C)Cc1ccc(NC(=O)C2=Cc3cc(-c4ccccc4)ccc3CC2)cc1 [Compound 6, N-[4—(dimethylaminomethyl)-phenyl]-7-phenyl-3,4-dihydro-naphthalene-2-carboxamide] | 182 to 184 °C
O=C(Nc1ccc(CN2CCOCC2)cc1)C1=Cc2cc(-c3ccccc3)ccc2CC1 [Compound 8, N-[4—(morpholinomethyl)-phenyl]-7-phenyl-3,4-dihydronaphthalene-2-carboxamide] | 186 to 187 °C
O=C(Nc1ccc(CCN2CCCCC2)cc1)C1=Cc2cc(-c3ccccc3)ccc2CC1 [Compound 9, 7-phenyl-N-[4—(2-piperidinoethyl)phenyl]-3,4-dihydro-naphthalene-2-carboxamide] | 157 to 159 °C
Cc1ccc(-c2ccc3c(c2)C=C(C(=O)Nc2ccc(CN4CCCCC4)cc2)CC3)cc1 [Compound 14, 7—(4-methylphenyl)-N-[4—(piperidinomethyl)phenyl]-3,4-dihydronaphthalene-2-carboxamide] | 187 to 189 °C
O=C(Nc1ccc(CN2CCCCC2)cc1)C1=Cc2cc(-c3ccc(F)cc3)ccc2CC1 [Compound 15, 7—(4-fluorophenyl)-N-[4—(piperidinomethyl)phenyl]-3,4-dihydronaphthalene-2-carboxamide] | 175 to 176 °C
Cc1ccc(-c2ccc3c(c2)C=C(C(=O)Nc2ccc(CN4CCC(Cc5ccccc5)CC4)cc2)CC3)cc1 [Compound 35, N-[4—(4-benzyl-piperidinomethyl)phenyl]-7—(4-methylphenyl)-3,4-dihydronaphthalene-2-carboxamide] | 199 to 201 °C

Structure (SMILES) | melting point
COc1ccccc1N1CCN(Cc2ccc(NC(=O)C3=Cc4cc(-c5ccc(C)cc5)ccc4CC3)cc2)CC1 [Compound 41, N-[4-[1—(2-methoxyphenyl)-4-piperazinylmethyl]phenyl]-7—(4-methylphenyl)-3,4-dihydronaphthalene-2-carboxamide] | 202 to 205 °C
Cc1ccc(-c2ccc3c(c2)C=C(C(=O)Nc2ccc(CN4CCN(c5ncccn5)CC4)cc2)CC3)cc1 [Compound 42, 7—(4-methylphenyl)-N-[4-[1—(2-pyrimidyl)-4-piperazinylmethyl]-phenyl]-3,4-dihydronaphthalene-2-carboxamide] | 203 to 204 °C
COc1cc(CN2CCN(Cc3ccc(NC(=O)C4=Cc5cc(-c6ccc(C)cc6)ccc5CC4)cc3)CC2)cc(OC)c1OC [Compound 45, N-[4-[1—(3,4,5-trimethoxybenzyl)-4-piperazinylmethyl]-phenyl]-7—(4-methylphenyl)-3,4-dihydronaphthalene-2-carboxamide] | 143 to 144 °C
Cc1ccc(-c2ccc3c(c2)C=C(C(=O)Nc2ccc(CN4CCN(CCO)CC4)cc2)CC3)cc1 [Compound 46, N-[4-[1—(2-hydroxyethyl)-4-piperazinylmethyl]phenyl]-7—(4-methylphenyl)-3,4-dihydronaphthalene-2-carboxamide] | 185 to 187 °C
Cc1ccc(-c2ccc3c(c2)C=C(C(=O)Nc2ccc(CNc4cccnc4)cc2)CC3)cc1 [Compound 47, 7—(4-methylphenyl)-N-[4-[N-(3-pyridyl)aminomethyl]phenyl]-3,4-dihydronaphthalene-2-carboxamide] | 212 to 214 °C
Cc1ccc(-c2ccc3c(c2)C=C(C(=O)Nc2ccc(CNC(CO)CO)cc2)CC3)cc1 [Compound 48, N-[4-[(1,3-dihydroxy-2-propyl)aminomethyl]phenyl]-7—(4-methylphenyl)-3,4-dihydronaphthalene-2-carboxamide] | 189 to 193 °C
Cc1ccc(-c2ccc3c(c2)C=C(C(=O)Nc2ccc(CN4CCC(O)CC4)cc2)CC3)cc1 [Compound 49, N-[4—(4-hydroxypiperidinomethyl)phenyl]-7—(4-methylphenyl)-3,4-dihydronaphthalene-2-carboxamide] | 223 to 224 °C
Cc1ccc(-c2ccc3c(c2)C=C(C(=O)Nc2ccc(CN4CCSCC4)cc2)CC3)cc1 [Compound 50, 7—(4-methylphenyl)-N-[4—(thiomorpholinomethyl)phenyl]-3,4-dihydro-naphthalene-2-carboxamide] | 178 to 180 °C
Cc1ccc(-c2ccc3c(c2)C=C(C(=O)Nc2ccc(CN(CCO)CCO)cc2)CC3)cc1 [Compound 51, N-[4-[N,N-bis(2-hydroxyethyl)-aminomethyl]phenyl]-7—(4-methylphenyl)-3,4-dihydronaphthalene-2-carboxamide] | 150 to 151 °C
Cc1ccc(-c2ccc3c(c2)C=C(C(=O)Nc2ccc(CSC4CCCCC4)cc2)CCO3)cc1 [Compound 53, N-(4—(cyclohexylthiomethyl)-phenyl)-7—(4-methylphenyl)-2,3-dihydro-1-benzoxepine-4-carboxamide] | 161 to 162 °C
Cc1ccc(-c2cccc(/C=C/C(=O)Nc3ccc(CN4CCN(Cc5ccc6c(c5)OCO6)CC4)cc3)c2)cc1 [Compound 57, (E)-N-[4-[1—(3,4-methylenedioxybenzyl)-4-piperazinylmethyl]phenyl]-3—(4-methylphenyl)cinnamamide] | 204 to 207 °C
O=C(Nc1ccc(CN2CCCCC2)cc1)c1ccc2ccc(-c3ccccc3)cc2c1 [Compound 58, N-[4—(piperidinomethyl)phenyl]-7-phenylnaphthalene-2-carboxamide] | 177 to 178 °C
Cc1ccc(-c2ccc3c(c2)C=C(C(=O)Nc2ccc(CN4CCCCC4)cc2)C3)cc1 [Compound 60, N-[4—(piperidinomethyl)phenyl]-5—(4-methylphenyl)indene-2-carboxamide] | 219 to 220 °C
COc1ccc(N2CCN(Cc3ccc(NC(=O)/C=C/c4cccc(-c5ccc(C)cc5)c4)cc3)CC2)cc1 [Compound 62, (E)-N-[4-[1—(4-methoxy-phenyl)-4-piperazinylmethyl]phenyl]-3—(4-methylphenyl)cinnamamide] | 207 to 208 °C
Cc1ccc(-c2cccc(/C=C/C(=O)Nc3ccc(CN(C)CC#N)cc3)c2)cc1 [Compound 64, (E)-N-[4-[N-(cyanomethyl)-N-methylaminomethyl]phenyl]-3—(4-methylphenyl)cinnamamide] | 163 to 165 °C
Cc1ccc(-c2cccc(/C=C/C(=O)Nc3ccc(Cn4ccnc4)cc3)c2)cc1 [Compound 65, (E)-N-[4-[(imidazol-1-yl)methyl]phenyl]-3—(4-methylphenyl)cinnamamide] | 198 to 200 °C
Cc1ccc(-c2cccc(/C=C/C(=O)Nc3ccc(CN4CCCC(CO)C4)cc3)c2)cc1 (stereo not shown) [Compound 66, (E)-N-[4-[3—(hydroxy-methyl)piperidinomethyl]phenyl]-3—(4-methylphenyl)cinnamamide] | 153 to 154 °C
Cc1ccc(-c2cccc(/C=C/C(=O)Nc3ccc(CN4CCCC(O)C4)cc3)c2)cc1 (stereo not shown) [Compound 67, (E)-N-[4—(3-hydroxypiperidino-methyl)phenyl]-3—(4-methylphenyl)cinnamamide] | 132 to 134 °C
